From patent US10913727B2, “Modulators of the integrated stress pathway” (Calico Life Sciences LLC, priority 2016, dated 2021)

test system: HEK293T cells carrying the ATF4 luciferase reporter; test: ATF4-Luc assay, in vitro model of Vanishing Cell White Matter Disease (VWMD); assay type: cell-based; conditions: Homo sapiens, HEK-293T, 1 μg/mL tunicamycin, 7 hours, One Glo luminescence
Procedure, shortened: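 Compound at 200 nM and tunicamycin at 1 μg/mL were given together for 7 h to HEK293T cells stably transduced with an ATF4 5′-UTR-driven firefly luciferase reporter. Read-out by luminescence, reported as EC50.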

Structure (SMILES) | EC50
O=C(COc1ccc(Cl)c(F)c1)NC12CC(NC(=O)c3ccc(OCCO)nc3)(C1)C2 [Compound 161, N-{3-[2-(4-chloro-3-fluorophenoxy)acetamido]bicyclo[1.1.1]pentan-1-yl}-6-(2-hydroxyethoxy)pyridine-3-carboxamide] | 1000 to 2000 nM
O=C(COc1ccc(Cl)c(F)c1)NC12CC(NC(=O)c3ccccc3-n3cccn3)(C1)C2 [Compound 839, N-{3-[2-(4-chloro-3-fluorophenoxy)acetamido]bicyclo[1.1.1]pentan-1-yl}-2-(1H-pyrazol-1-yl)benzamide] | > 2000 nM
O=C(COc1ccc(Cl)c(F)c1)NC12CC(Nc3nc4ccccc4o3)(C1)C2 [Compound 360, N-{3-[(1,3-benzoxazol-2-yl)amino]bicyclo[1.1.1]pentan-1-yl}-2-(4-chloro-3-fluorophenoxy)acetamide] | > 2000 nM
Cc1nc2ccc(C(=O)NC34CC(NC(=O)COc5ccc(Cl)c(F)c5)(C3)C4)cc2nc1C [Compound 779, N-{3-[2-(4-chloro-3-fluorophenoxy)acetamido]bicyclo[1.1.1]pentan-1-yl}-2,3-dimethylquinoxaline-6-carboxamide] | > 2000 nM
O=C(COc1ccc(Cl)c(F)c1)NC12CC(NC(=O)c3cccc(Cn4cncn4)c3)(C1)C2 [Compound 892, N-{3-[2-(4-chloro-3-fluorophenoxy)acetamido]bicyclo[1.1.1]pentan-1-yl}-3-[(1H-1,2,4-triazol-1-yl)methyl]benzamide] | 250 to 1000 nM
O=C(COc1ccc(Cl)c(F)c1)NC12CCC(NC(=O)c3cscn3)(CC1)CC2O (stereo not drawn) [Compound 592, N-{4-[2-(4-chloro-3-fluorophenoxy)acetamido]-3-hydroxybicyclo[2.2.2]octan-1-yl}-1,3-thiazole-4-carboxamide] | 50 to 250 nM
O=C(COc1ccc(Cl)c(F)c1)NC12CC(NC(=O)c3ccc4ocnc4c3)(C1)C2 [Compound 801, N-{3-[2-(4-chloro-3-fluorophenoxy)acetamido]bicyclo[1.1.1]pentan-1-yl}-1,3-benzoxazole-5-carboxamide] | > 2000 nM
COc1ncnc(OC)c1C(=O)NC12CC(NC(=O)COc3ccc(Cl)c(F)c3)(C1)C2 [Compound 118, N-{3-[2-(4-chloro-3-fluorophenoxy)acetamido]bicyclo[1.1.1]pentan-1-yl}-4,6-dimethoxypyrimidine-5-carboxamide] | > 2000 nM
Cc1cnc(C(=O)NC23CC(NC(=O)COc4ccc(Cl)cc4)(C2)C3)cn1 [Compound 136, N-{3-[2-(4-chlorophenoxy)acetamido]bicyclo[1.1.1]pentan-1-yl}-5-methylpyrazine-2-carboxamide] | 250 to 1000 nM
COc1nc(C)c(C(=O)NC23CC(NC(=O)COc4ccc(Cl)c(F)c4)(C2)C3)s1 [Compound 872, N-{3-[2-(4-chloro-3-fluorophenoxy)acetamido]bicyclo[1.1.1]pentan-1-yl}-2-methoxy-4-methyl-1,3-thiazole-5-carboxamide] | 50 to 250 nM
CCc1nc(C(=O)NC23CC(NC(=O)COc4ccc(Cl)c(F)c4)(C2)C3)co1 [Compound 251, N-{3-[2-(4-chloro-3-fluorophenoxy)acetamido]bicyclo[1.1.1]pentan-1-yl}-2-ethyl-1,3-oxazole-4-carboxamide] | 50 to 250 nM
Cc1scnc1C(=O)NC12CC(NC(=O)COc3ccc(Cl)c(F)c3)(C1)C2 [Compound 541, N-{3-[2-(4-chloro-3-fluorophenoxy)acetamido]bicyclo[1.1.1]pentan-1-yl}-5-methyl-1,3-thiazole-4-carboxamide] | 1000 to 2000 nM
COC/C=C/c1cnc(C(=O)NC23CC(NC(=O)COc4ccc(Cl)c(F)c4)(C2)C3)cn1 [Compound 171, N-{3-[2-(4-chloro-3-fluorophenoxy)acetamido]bicyclo[1.1.1]pentan-1-yl}-5-[(1E)-3-methoxyprop-1-en-1-yl]pyrazine-2-carboxamide] | 50 to 250 nM
O=C(COc1ccc(Cl)c(F)c1)NC12CC(NC(=O)c3ccc(Cl)cc3)(C1)C2 [Compound 199, 4-chloro-N-{3-[2-(4-chloro-3-fluorophenoxy)acetamido]bicyclo[1.1.1]pentan-1-yl}benzamide] | 50 to 250 nM
Cc1nccn1-c1ccccc1C(=O)NC12CC(NC(=O)COc3ccc(Cl)c(F)c3)(C1)C2 [Compound 883, N-{3-[2-(4-chloro-3-fluorophenoxy)acetamido]bicyclo[1.1.1]pentan-1-yl}-2-(2-methyl-1H-imidazol-1-yl)benzamide] | > 2000 nM
CC(C)Oc1ccc(C(=O)NC23CC(NC(=O)COc4ccc(Cl)c(F)c4)(C2)C3)cc1 [Compound 232, N-{3-[2-(4-chloro-3-fluorophenoxy)acetamido]bicyclo[1.1.1]pentan-1-yl}-4-[(propan-2-yl)oxy]benzamide] | 50 to 250 nM
CCc1noc(C)c1C(=O)NC12CC(NC(=O)COc3ccc(Cl)c(F)c3)(C1)C2 [Compound 824, N-{3-[2-(4-chloro-3-fluorophenoxy)acetamido]bicyclo[1.1.1]pentan-1-yl}-3-ethyl-5-methyl-1,2-oxazole-4-carboxamide] | > 2000 nM

Structure (SMILES) | EC50
Cc1cc2c(NC34CC(NC(=O)COc5ccc(F)c(F)c5)(C3)C4)nccn2n1 [Compound 436, 2-(3,4-difluorophenoxy)-N-{3-[(2-methylpyrazolo[1,5-a]pyrazin-4-yl)amino]bicyclo[1.1.1]pentan-1-yl}acetamide] | 50 to 250 nM
CC(C)c1cc(C(=O)NC23CC(NC(=O)COc4ccc(Cl)c(F)c4)(C2)C3)n(C)n1 [Compound 364, N-{3-[2-(4-chloro-3-fluorophenoxy)acetamido]bicyclo[1.1.1]pentan-1-yl}-1-methyl-3-(propan-2-yl)-1H-pyrazole-5-carboxamide] | 50 to 250 nM
O=C(COc1ccc2c(c1)OC(F)(F)O2)NC12CC(NC(=O)c3cc(CO)ccn3)(C1)C2 [Compound 401, N-(3-{2-[(2,2-difluoro-2H-1,3-benzodioxol-5-yl)oxy]acetamido}bicyclo[1.1.1]pentan-1-yl)-4-(hydroxymethyl)pyridine-2-carboxamide] | 250 to 1000 nM
Cn1nc(C(=O)NC23CCC(NC(=O)COc4ccc(Cl)c(F)c4)(CC2)C(O)C3)cc1C(F)(F)F (stereo not drawn) [Compound 565, N-{4-[2-(4-chloro-3-fluorophenoxy)acetamido]-3-hydroxybicyclo[2.2.2]octan-1-yl}-1-methyl-5-(trifluoromethyl)-1H-pyrazole-3-carboxamide] | 50 to 250 nM
N#Cc1ccsc1C(=O)NC12CC(NC(=O)COc3ccc(Cl)c(F)c3)(C1)C2 [Compound 860, N-{3-[2-(4-chloro-3-fluorophenoxy)acetamido]bicyclo[1.1.1]pentan-1-yl}-3-cyanothiophene-2-carboxamide] | 1000 to 2000 nM
Cc1cnc(C(=O)NC23CCC(NC(=O)COc4ccc(Cl)c(Cl)c4)(C2)C3)cn1 [Compound 142, N-{4-[2-(3,4-dichlorophenoxy)acetamido]bicyclo[2.1.1]hexan-1-yl}-5-methylpyrazine-2-carboxamide] | 250 to 1000 nM
O=C(COc1ccc(Cl)c(F)c1)NC12CCC(NC(=O)c3cnc4ccccc4n3)(CC1)C(O)C2 (stereo not drawn) [Compound 223, N-{4-[2-(4-chloro-3-fluorophenoxy)acetamido]-2-hydroxybicyclo[2.2.2]octan-1-yl}quinoxaline-2-carboxamide] | 50 to 250 nM
O=C(COc1ccc(Cl)c(F)c1)NC12CC(NC(=O)c3ncn4ccccc34)(C1)C2 [Compound 782, N-{3-[2-(4-chloro-3-fluorophenoxy)acetamido]bicyclo[1.1.1]pentan-1-yl}imidazo[1,5-a]pyridine-1-carboxamide] | > 2000 nM
O=C(COc1ccc(Cl)c(F)c1)NC12CC(NC(=O)c3cc(F)ccc3F)(C1)C2 [Compound 510, N-{3-[2-(4-chloro-3-fluorophenoxy)acetamido]bicyclo[1.1.1]pentan-1-yl}-2,5-difluorobenzamide] | 250 to 1000 nM
Cc1cc(C(=O)NC23CCC(NC(=O)COc4ccc(Cl)c(F)c4)(CC2)C(O)C3)no1 (stereo not drawn) [Compound 272, N-{4-[2-(4-chloro-3-fluorophenoxy)acetamido]-3-hydroxybicyclo[2.2.2]octan-1-yl}-5-methyl-1,2-oxazole-3-carboxamide] | 50 to 250 nM
O=C(COc1ccc(Cl)c(F)c1)NC12CC(NC(=O)c3ccc(OC(F)(F)F)cn3)(C1)C2 [Compound 117, N-{3-[2-(4-chloro-3-fluorophenoxy)acetamido]bicyclo[1.1.1]pentan-1-yl}-5-(trifluoromethoxy)pyridine-2-carboxamide] | < 50 nM
O=C(COc1ccc(C(F)(F)F)nc1)NC12CC(NC(=O)c3ccc(OC(F)(F)F)cn3)(C1)C2 [Compound 454, 5-(trifluoromethoxy)-N-[3-(2-{[6-(trifluoromethyl)pyridin-3-yl]oxy}acetamido)bicyclo[1.1.1]pentan-1-yl]pyridine-2-carboxamide] | 50 to 250 nM
COc1ccc2oc(C(=O)NC34CC(NC(=O)COc5ccc(Cl)c(F)c5)(C3)C4)cc2c1 [Compound 319, N-{3-[2-(4-chloro-3-fluorophenoxy)acetamido]bicyclo[1.1.1]pentan-1-yl}-5-methoxy-1-benzofuran-2-carboxamide] | 50 to 250 nM
CSCc1ccc(C(=O)NC23CC(NC(=O)COc4ccc(Cl)c(F)c4)(C2)C3)o1 [Compound 830, N-{3-[2-(4-chloro-3-fluorophenoxy)acetamido]bicyclo[1.1.1]pentan-1-yl}-5-[(methylsulfanyl)methyl]furan-2-carboxamide] | 50 to 250 nM
Cc1cnc(C(=O)NC23CC(NC(=O)COc4ccc(Cl)c(F)c4)(C2)C3)cn1 [Compound 114, N-{3-[2-(4-chloro-3-fluorophenoxy)acetamido]bicyclo[1.1.1]pentan-1-yl}-5-methylpyrazine-2-carboxamide] | 50 to 250 nM
Cc1cc(C(=O)NC23CC(NC(=O)COc4ccc(Cl)c(Cl)c4)(C2)C3)n(CC(C)(C)O)n1 [Compound 460, N-{3-[2-(3,4-dichlorophenoxy)acetamido]bicyclo[1.1.1]pentan-1-yl}-1-(2-hydroxy-2-methylpropyl)-3-methyl-1H-pyrazole-5-carboxamide] | > 2000 nM
